According to PubChem BioAssay AID248 (DTP/NCI, 2004):
Several values for one entry are separate records, joined by “and”; a condition that tells them apart may be missing. Identical values can stand only once. Toxic doses and inconclusive results are not listed.

System: L1210 leukemia ip in BDF1 mice, survival T/C
Experiment: NCI In Vivo Anticancer Drug Screen. Data for tumor model L1210 Leukemia (intraperitoneal) in B6D2F1 (BDF1) mice
Details: endpoint: mean survival time, higher = longer survival
Procedure, shortened: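 Antitumor effect is assessed in tumor-bearing animals. Survival in the compound arm is compared with a vehicle-dosed control arm and expressed as their quotient.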

O=C(Nc1ccc(C2=NCCCN2)cc1)c1ccc(C(=O)Nc2ccc(C3=NCCCN3)cc2)cc1
T/C (dose: 0.5 mg/kg/injection, schedule: Q01DX Z (ip), vehicle: carboxymethylcellulose (CMC)): 95 % of control
T/C (dose: 0.5 mg/kg/injection, schedule: Q01DX Z (iv), vehicle: saline): 100 % of control
T/C (dose: 0.8 mg/kg/injection, schedule: Q01DX Z (ip), vehicle: carboxymethylcellulose (CMC)): 101 % of control
T/C (dose: 1.0 mg/kg/injection, schedule: Q01DX010 (ip), vehicle: other): 160 % of control
T/C (dose: 1.0 mg/kg/injection, schedule: Q01DX010 (iv), vehicle: other): 103 % of control
T/C (dose: 1.0 mg/kg/injection, schedule: Q01DX Z (iv), vehicle: saline): 107 % of control
T/C (dose: 1.2 mg/kg/injection, schedule: Q01DX Z (ip), vehicle: carboxymethylcellulose (CMC)): 103 % of control
T/C (dose: 1.9 mg/kg/injection, schedule: Q01DX Z (ip), vehicle: carboxymethylcellulose (CMC)): 109 % of control and 211 % of control
T/C (dose: 2.0 mg/kg/injection, schedule: Q01DX010 (ip), vehicle: other): 174 % of control and 235 % of control
T/C (dose: 2.0 mg/kg/injection, schedule: Q01DX010 (ip), vehicle: saline): 155 % of control
T/C (dose: 2.0 mg/kg/injection, schedule: Q01DX010 (iv), vehicle: other): 180 % of control
T/C (dose: 2.0 mg/kg/injection, schedule: Q01DX Z (iv), vehicle: saline): 111 % of control
T/C (dose: 2.8 mg/kg/injection, schedule: Q01DX Z (ip), vehicle: carboxymethylcellulose (CMC)): 277 % of control
T/C (dose: 4.0 mg/kg/injection, schedule: Q01DX010 (ip), vehicle: other): 205 % of control and 217 % of control and 265 % of control
T/C (dose: 4.0 mg/kg/injection, schedule: Q01DX010 (ip), vehicle: saline): 208 % of control and 235 % of control
T/C (dose: 4.0 mg/kg/injection, schedule: Q01DX010 (iv), vehicle: other): 237 % of control
T/C (dose: 4.0 mg/kg/injection, schedule: Q01DX010 (iv), vehicle: saline): 203 % of control
T/C (dose: 4.0 mg/kg/injection, schedule: Q01DX Z (iv), vehicle: other): 202 % of control
T/C (dose: 4.0 mg/kg/injection, schedule: Q01DX Z (iv), vehicle: saline): 238 % of control
T/C (dose: 4.2 mg/kg/injection, schedule: Q01DX Z (ip), vehicle: carboxymethylcellulose (CMC)): 280 % of control
T/C (dose: 6.3 mg/kg/injection, schedule: Q01DX Z (ip), vehicle: carboxymethylcellulose (CMC)): 209 % of control and 229 % of control
T/C (dose: 8.0 mg/kg/injection, schedule: Q01DX010 (ip), vehicle: other): 97 % of control and 115 % of control
T/C (dose: 8.0 mg/kg/injection, schedule: Q01DX010 (ip), vehicle: saline): 229 % of control and 338 % of control
T/C (dose: 8.0 mg/kg/injection, schedule: Q01DX010 (iv), vehicle: saline): 161 % of control
T/C (dose: 8.0 mg/kg/injection, schedule: Q01DX Z (iv), vehicle: saline): 182 % of control
T/C (dose: 9.4 mg/kg/injection, schedule: Q01DX Z (ip), vehicle: carboxymethylcellulose (CMC)): 211 % of control
T/C (dose: 16.0 mg/kg/injection, schedule: Q01DX010 (ip), vehicle: other): 103 % of control and 89 % of control
T/C (dose: 16.0 mg/kg/injection, schedule: Q01DX010 (iv), vehicle: saline): 117 % of control
T/C (dose: 16.0 mg/kg/injection, schedule: Q01DX010 (sc), vehicle: olive oil, sesame oil, peanut oil): 113 % of control
T/C (dose: 21.3 mg/kg/injection, schedule: Q01DX Z (ip), vehicle: carboxymethylcellulose (CMC)): 119 % of control
T/C (dose: 22.0 mg/kg/injection, schedule: Q01DX010 (sc), vehicle: olive oil, sesame oil, peanut oil): 101 % of control
T/C (dose: 30.0 mg/kg/injection, schedule: Q01DX Z (oral), vehicle: carboxymethylcellulose (CMC)): 95 % of control
T/C (dose: 31.3 mg/kg/injection, schedule: Q01DX010 (sc), vehicle: olive oil, sesame oil, peanut oil): 119 % of control and 89 % of control
T/C (dose: 31.3 mg/kg/injection, schedule: Q02DX004 (im), vehicle: olive oil, sesame oil, peanut oil): 116 % of control and 124 % of control
T/C (dose: 32.0 mg/kg/injection, schedule: Q01DX Z (ip), vehicle: carboxymethylcellulose (CMC)): 123 % of control
T/C (dose: 44.0 mg/kg/injection, schedule: Q01DX Z (sc), vehicle: saline): 109 % of control
T/C (dose: 48.0 mg/kg/injection, schedule: Q01DX Z (ip), vehicle: carboxymethylcellulose (CMC)): 94 % of control
T/C (dose: 60.0 mg/kg/injection, schedule: Q01DX Z (oral), vehicle: carboxymethylcellulose (CMC)): 91 % of control
T/C (dose: 62.5 mg/kg/injection, schedule: Q01DX001 (im), vehicle: steriod suspending solution): 106 % of control
T/C (dose: 62.5 mg/kg/injection, schedule: Q01DX010 (oral), vehicle: other): 111 % of control
T/C (dose: 62.5 mg/kg/injection, schedule: Q02DX004 (im), vehicle: olive oil, sesame oil, peanut oil): 100 % of control and 107 % of control
T/C (dose: 66.0 mg/kg/injection, schedule: Q01DX Z (sc), vehicle: saline): 102 % of control
T/C (dose: 72.0 mg/kg/injection, schedule: Q01DX Z (ip), vehicle: carboxymethylcellulose (CMC)): 100 % of control
T/C (dose: 88.5 mg/kg/injection, schedule: Q#A X Z (oral), vehicle: saline): 115 % of control
T/C (dose: 100.0 mg/kg/injection, schedule: Q01DX Z (sc), vehicle: saline): 105 % of control
T/C (dose: 120.0 mg/kg/injection, schedule: Q01DX Z (oral), vehicle: carboxymethylcellulose (CMC)): 91 % of control
T/C (dose: 125.0 mg/kg/injection, schedule: Q01DX001 (im), vehicle: steriod suspending solution): 108 % of control
T/C (dose: 125.0 mg/kg/injection, schedule: Q02DX004 (im), vehicle: olive oil, sesame oil, peanut oil): 98 % of control and 105 % of control
T/C (dose: 150.0 mg/kg/injection, schedule: Q01DX Z (sc), vehicle: saline): 98 % of control and 103 % of control
T/C (dose: 177.0 mg/kg/injection, schedule: Q01DX Z (oral), vehicle: saline): 109 % of control
T/C (dose: 200.0 mg/kg/injection, schedule: Q#A X Z (oral), vehicle: saline): 161 % of control
T/C (dose: 250.0 mg/kg/injection, schedule: Q01DX001 (im), vehicle: steriod suspending solution): 93 % of control
T/C (dose: 250.0 mg/kg/injection, schedule: Q01DX010 (oral), vehicle: other): 183 % of control
T/C (dose: 250.0 mg/kg/injection, schedule: Q02DX004 (im), vehicle: olive oil, sesame oil, peanut oil): 100 % of control and 104 % of control
T/C (dose: 300.0 mg/kg/injection, schedule: Q01DX Z (sc), vehicle: saline): 105 % of control
T/C (dose: 333.0 mg/kg/injection, schedule: Q## X010 (oral), vehicle: saline): 153 % of control
T/C (dose: 400.0 mg/kg/injection, schedule: Q01DX Z (oral), vehicle: saline): 158 % of control
T/C (dose: 500.0 mg/kg/injection, schedule: Q01DX010 (oral), vehicle: other): 181 % of control
T/C (dose: 500.0 mg/kg/injection, schedule: Q## X010 (oral), vehicle: saline): 121 % of control
T/C (dose: 531.0 mg/kg/injection, schedule: Q03DX Z (oral), vehicle: saline): 105 % of control
T/C (dose: 600.0 mg/kg/injection, schedule: Q01DX Z (oral), vehicle: saline): 151 % of control and 163 % of control
T/C (dose: 798.0 mg/kg/injection, schedule: Q03DX Z (oral), vehicle: saline): 107 % of control
T/C (dose: 900.0 mg/kg/injection, schedule: Q01DX Z (oral), vehicle: saline): 124 % of control
T/C (dose: 1200.0 mg/kg/injection, schedule: Q03DX Z (oral), vehicle: saline): 98 % of control
T/C (dose: 1239.0 mg/kg/injection, schedule: Q07DX Z (oral), vehicle: saline): 102 % of control
T/C (dose: 1800.0 mg/kg/injection, schedule: Q03DX Z (oral), vehicle: saline): 111 % of control
T/C (dose: 1862.0 mg/kg/injection, schedule: Q07DX Z (oral), vehicle: saline): 105 % of control
T/C (dose: 2700.0 mg/kg/injection, schedule: Q03DX Z (oral), vehicle: saline): 121 % of control
T/C (dose: 2800.0 mg/kg/injection, schedule: Q07DX Z (oral), vehicle: saline): 101 % of control
T/C (dose: 4200.0 mg/kg/injection, schedule: Q07DX Z (oral), vehicle: saline): 105 % of control

O=C1CC2=CCCCc3cccc1c32
T/C (dose: 100.0 mg/kg/injection, schedule: Q01DX001 (ip), vehicle: carboxymethylcellulose (CMC)): 93 % of control
T/C (dose: 200.0 mg/kg/injection, schedule: Q01DX001 (ip), vehicle: carboxymethylcellulose (CMC)): 93 % of control
T/C (dose: 400.0 mg/kg/injection, schedule: Q01DX001 (ip), vehicle: carboxymethylcellulose (CMC)): 93 % of control

O=C(Nc1ccc(Cl)c(Cl)c1)n1ncc2ccc([N+](=O)[O-])cc21
T/C (dose: 100.0 mg/kg/injection, schedule: Q01DX001 (ip), vehicle: saline): 100 % of control
T/C (dose: 200.0 mg/kg/injection, schedule: Q01DX001 (ip), vehicle: saline): 96 % of control
T/C (dose: 400.0 mg/kg/injection, schedule: Q01DX001 (ip), vehicle: saline): 100 % of control

Nc1nc(SCc2ccncc2)c2[nH]cnc2n1
T/C (dose: 178.0 mg/kg/injection, schedule: Q01DX001 (ip), vehicle: saline): 118 % of control
